How the values were obtained:
Type in all cases: cell-based
A. niger ATCC # 16404 = experiment: Microtiter plate MIC / synergy test (Kull synergy index), mold, PDB medium; settings: for Ca: ppm AI of first component (A) alone (MIC, QA): A. niger; for Ca: MIC of first component (A) alone (QA): PDB medium, 25° C.
Excerpt: (§1) One measure of synergism is the industrially accepted method described by Kull, F. C.; Eisman, P. C.; Sylwestrowicz, H. D. and Mayer, R. L., in Applied Microbiology 9:538-541 (1961), using the ratio determined by the formula: Qa/QA+Qb/QB=Synergy Index (“SI”) wherein: • QA=concentration of compound A (first component) in ppm, acting alone, which produced an end point (MIC of Compound A). • Qa=concentration of compound A in ppm, in the mixture, which produced an end point. • QB=concentration of compound B (second component) in ppm, acting alone, which produced an end point (MIC of Compound B). • Qb=concentration of compound B in ppm, in the mixture, which produced an end point.
(§2) When the sum of Qa/QA and Qb/QB is greater than one, antagonism is indicated. […] The lower the SI, the greater the synergy shown by that particular mixture. The minimum inhibitory concentration (MIC) of a microbicide is the lowest concentration tested under a specific set of conditions that prevents the growth of added microorganisms.
(§3) Synergy tests were conducted using standard microtiter plate assays with media designed for optimal growth of the test microorganism. Minimal salt medium supplemented with 0.2% glucose and 0.1% yeast extract (M9GY medium) was used for testing bacteria; Potato Dextrose Broth (PDB medium) was used for testing yeast and mold. In this method, a wide range of combinations of microbicides was tested by conducting high resolution MIC assays in the presence of various concentrations of MBIT. High resolution MICs were determined by adding varying amounts of microbicide to one column of a microtitre plate and doing subsequent […] dilutions using an automated liquid handling system to obtain a series of endpoints ranging from 2 ppm to 10,000 ppm active ingredient.
(§4) The synergy of the combinations of the present invention was determined against several microorganisms, as described in the Tables below. The bacteria were used at a concentration of about 5×10^6 bacteria per mL and the yeast and mold at 5×10^5 fungi per mL. These microorganisms are representative of natural contaminants in many consumer and industrial applications. […] (yeast and mold) or 30° C. (bacteria).
(§5) In each test, Second Component (B) was MBIT and the First Component (A) was the other commercial microbicide.

C. albicans ATCC # 10231 = experiment: Microtiter plate MIC / synergy test (Kull synergy index), yeast, PDB medium; settings: for Ca: ppm AI of first component (A) alone (MIC, QA): C. albicans; for Ca: MIC of first component (A) alone (QA): PDB medium, 25° C.
Excerpt: as §1, §2, §3, §4, §5

[1] = test system: Ps. aeruginosa ATCC # 9027; experiment: Microtiter plate MIC / synergy test (Kull synergy index), bacteria, M9GY medium; settings: for Ca: ppm AI of first component (A) alone (MIC, QA): Ps. aeruginosa
Protocol: as §2, §3
The bacteria were used at a concentration of about 5×10^6 bacteria per mL and the yeast and mold at 5×10^5 fungi per mL. These microorganisms are representative of natural contaminants in many consumer and industrial applications. […] (yeast and mold) or 30° C. (bacteria).
as §5

S. aureus ATCC # 6538 = experiment: as above; settings: for Ca: ppm AI of first component (A) alone (MIC, QA): S. aureus; for Ca: MIC of first component (A) alone (QA): M9GY medium, 30° C.
Excerpt: as §1, §2, §3, §4, §5

SMILES | Ca: ppm AI of first component (A) alone (MIC, QA) (A. niger ATCC # 16404; contact time 3 days) [ppm AI] | Ca: ppm AI of first component (A) alone (MIC, QA) (A. niger ATCC # 16404; contact time 7 days) [ppm AI] | Ca: ppm AI of first component (A) alone (MIC, QA) (C. albicans ATCC # 10231; contact time 48 hrs) [ppm AI] | Ca: ppm AI of first component (A) alone (MIC, QA) (C. albicans ATCC # 10231; contact time 72 hrs) [ppm AI] | Ca: ppm AI of first component (A) alone (MIC, QA) ([1]; contact time 24 hrs) [ppm AI] | Ca: ppm AI of first component (A) alone (MIC, QA) ([1]; contact time 48 hrs) [ppm AI] | Ca: ppm AI of first component (A) alone (MIC, QA) (S. aureus ATCC # 6538; contact time 24 hrs) [ppm AI] | Ca: ppm AI of first component (A) alone (MIC, QA) (S. aureus ATCC # 6538; contact time 48 hrs) [ppm AI] | Ca: MIC of first component (A) alone (QA) (A. niger ATCC # 16404; A. niger ATCC # 16404, contact time 3 days) [ppm AI] | Ca: MIC of first component (A) alone (QA) (A. niger ATCC # 16404; A. niger ATCC # 16404, contact time 7 days) [ppm AI] | Ca: MIC of first component (A) alone (QA) (C. albicans ATCC # 10231; C. albicans ATCC # 10231, contact time 48 hrs) [ppm AI] | Ca: MIC of first component (A) alone (QA) (C. albicans ATCC # 10231; C. albicans ATCC # 10231, contact time 72 hrs) [ppm AI] | Ca: MIC of first component (A) alone (QA) ([1]; Ps. aeruginosa ATCC # 9027, contact time 48 hrs, M9GY medium, 30° C.) [ppm AI] | Ca: MIC of first component (A) alone (QA) (S. aureus ATCC # 6538; S. aureus ATCC # 6538, contact time 24 hrs) [ppm AI] | Ca: MIC of first component (A) alone (QA) (S. aureus ATCC # 6538; S. aureus ATCC # 6538, contact time 48 hrs) [ppm AI]
OCCN1CN(CCO)CN(CCO)C1 [BIOBAN GK, hexahydro-1,3,5-tris(2-hydroxyethyl)-s-triazine] | 425 | 650 | 875 | 875 | 55 | 55 | 55 | 55 |  |  |  |  |  |  | 
O=C([O-])CNCO.[Na+] [SUTTOCIDE A, sodium hydroxymethylglycinate] | 875 | 1100 | 3000 | 3000 | 87.5 | 110 | 110 | 110 |  |  |  |  |  |  | 
CCCCCCCC(=O)O [Caprylic acid] |  |  |  |  |  |  |  |  | 650 | 875 | 65 | 87.5 | >11000 | 425 | 425
